This note sets out measurements from patent US9365522B2, “Pyrazole amide derivative” (AMGEN INC., priority 2015, dated 2016).

The structures appear in SMILES notation.

This assay deals with T1, ligand binding domain of human ROR gamma (Homo sapiens, UniProt P51449).
T1 construct: NM_001001523; expressed in transfected cells; host or cells: HEK293T
T1 sequence (P51449 247-497 isoform P51449-2): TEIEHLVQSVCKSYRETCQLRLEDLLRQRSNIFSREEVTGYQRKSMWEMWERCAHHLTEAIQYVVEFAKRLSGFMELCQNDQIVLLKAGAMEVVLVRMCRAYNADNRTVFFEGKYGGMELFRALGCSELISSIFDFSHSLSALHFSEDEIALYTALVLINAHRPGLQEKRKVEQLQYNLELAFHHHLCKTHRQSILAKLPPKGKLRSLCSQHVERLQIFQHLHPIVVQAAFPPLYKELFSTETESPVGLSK
In words: ROR gamma reporter gene assay (GAL4-RORγ LBD luciferase, Dual-Glo). The class given is cell-based. The settings on record: HEK293T cells transfected with pM-ROR gamma, 8 concentrations 3.5 nM to 10.5 μM, 24 h incubation; read-out: result (pIC50, inhibition of RORγ transcriptional activity) (converted). An outline of the steps: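 Inhibition of RORγ-driven transcription was measured in HEK293T cells expressing a GAL4 fusion of the human RORγ LBD (aa 247-497), with renilla luciferase as internal control. Cells in 10% charcoal-stripped serum received compound (3.5 nM–10.5 μM) for 24 h.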
Regarding `CC1(C)[C@@H]2C[C@H](N(C[C@H](O)c3ccccc3Cl)C(=O)c3cnn([C@H]4CC[C@](C)(C(=O)O)CC4)c3C(F)(F)F)C[C@@H]21` [Example 368, trans-4-(4-((2-(2-chlorophenyl)-2-hydroxyethyl)((1R,3r,5S)-6,6-dimethylbicyclo[3.1.0]hexan-3-yl)carbamoyl)-5-(trifluoromethyl)-1H-pyrazol-1-yl)-1-methylcyclohexanecarboxylic acid], the IC50 was 191000 pM.

Take `CC1(C)[C@@H]2C[C@H](N(C[C@@H](O)c3ccccc3Cl)C(=O)c3cnn([C@H]4CC[C@](C)(C(=O)O)CC4)c3C(F)(F)F)C[C@@H]21` [Example 369, trans-4-(4-((2-(2-chlorophenyl)-2-hydroxyethyl)((1R,3r,5S)-6,6-dimethylbicyclo[3.1.0]hexan-3-yl)carbamoyl)-5-(trifluoromethyl)-1H-pyrazol-yl)-1-methylcyclohexanecarboxylic acid]: the IC50 was 1.23e+06 pM.

With `COc1ccccc1[C@@H](O)CN(C(=O)c1cnn([C@H]2CC[C@](C)(C(=O)O)CC2)c1C(F)(F)F)[C@H]1C[C@@H]2[C@H](C1)C2(C)C` [Example 370, trans-4-(4-(((1R,3r,5S)-6,6-dimethylbicyclo[3.1.0]hexan-3-yl)(2-hydroxy-2-(2-methoxyphenyl)ethyl)carbamoyl)-5-(trifluoromethyl)-1H-pyrazoH-yl)-1-methylcyclohexanecarboxylic acid], the IC50 is 537000 pM. For `COc1ccccc1[C@H](O)CN(C(=O)c1cnn([C@H]2CC[C@](C)(C(=O)O)CC2)c1C(F)(F)F)[C@H]1C[C@@H]2[C@H](C1)C2(C)C` [Example 371, trans-4-(4-(((1R,3r,5S)-6,6-dimethylbicyclo[3.1.0]hexan-3-yl)(2-hydroxy-2-(2-methoxyphenyl)ethyl)carbamoyl)-5-(trifluoromethyl)-1H-pyrazol-1-yl)-1-methylcyclohexanecarboxylic acid], the IC50 is 5.37e+06 pM. The same measure for `CC1(C)[C@@H]2C[C@H](N(C[C@H](O)c3ccccc3C(F)(F)F)C(=O)c3cnn([C@H]4CC[C@](C)(C(=O)O)CC4)c3C(F)(F)F)C[C@@H]21` [Example 372, trans-4-(4-(((1R,3r,5S)-6,6-dimethylbicyclo[3.1.0]hexan-3-yl)(2-hydroxy-2-(2-(trifluoromethyl)phenyl)ethyl)carbamoyl)-5-(trifluoromethyl)-1H-pyrazol-1-yl)-1-methylcyclohexanecarboxylic acid]: 331000 pM; for `CC1(C)[C@@H]2C[C@H](N(C[C@@H](O)c3ccccc3C(F)(F)F)C(=O)c3cnn([C@H]4CC[C@](C)(C(=O)O)CC4)c3C(F)(F)F)C[C@@H]21` [Example 373, trans-4-(4-(((1R,3r,5S)-6,6-dimethylbicyclo[3.1.0]hexan-3-yl)(2-hydroxy-2-(2-(trifluoromethyl)phenyl)ethyl)carbamoyl)-5-(trifluoromethyl)-1H-pyrazol-1-yl)-1-methylcyclohexanecarboxylic acid]: 3.39e+06 pM. The same measure for `COc1cccc(Cl)c1[C@@H](O)CN(C(=O)c1cnn([C@H]2CC[C@](C)(C(=O)O)CC2)c1Cl)[C@H]1C[C@@H]2[C@H](C1)C2(C)C` [Example 374, trans-4-(5-chloro-4-((2-(2-chloro-6-methoxyphenyl)-2-hydroxyethyl)((1R,3r,5S)-6,6-dimethylbicydo[3.1.0]hexan-3-yl)carbamoyl)-1H-pyrazol-1-yl)-1-methylcyclohexanecarboxylic acid]: 661000 pM; for `COc1cccc(Cl)c1[C@H](O)CN(C(=O)c1cnn([C@H]2CC[C@](C)(C(=O)O)CC2)c1Cl)[C@H]1C[C@@H]2[C@H](C1)C2(C)C` [Example 375, trans-4-(5-chloro-4-((2-(2-chloro-6-methoxyphenyl)-2-hydroxyethyl)((1R,3r,5S)-6,6-dimethylbicydo[3.1.0]hexan-3-yl)carbamoyl)-1H-pyrazol-1-yl)-1-methylcyclohexanecarboxylic acid]: 107000 pM; for `CC1(C)[C@@H]2C[C@H](N(CCc3n[nH]c4cccc(Cl)c34)C(=O)c3cnn([C@H]4CC[C@](C)(C(=O)O)CC4)c3C(F)(F)F)C[C@@H]21` [Example 376, trans-4-(4-((2-(4-chloro-1H -indazol-3-yl)ethyl)((1R,3r,5S)-6,6-dimethylbicyclo[3.1.0]hexan-3-yl)carbamoyl)-5-(trifluoromethyl)-1H-pyrazol-1-yl)-1-methylcyclohexanecarboxylic acid]: 309000 pM. In the case of `CC(CN(C(=O)c1cnn([C@H]2CC[C@](C)(C(=O)O)CC2)c1C(F)(F)F)[C@H]1C[C@@H]2[C@H](C1)C2(C)C)c1c[nH]c2cccc(Cl)c12` (stereo partly drawn) [Example 377, trans-4-(4-((2-(4-chloro-1H-indol-3-yl)propyl)((1R,3r,5S)-6,6-dimethylbicyclo[3.1.0]hexan-3-yl)carbamoyl)-5-(trifluoromethyl)-1H-pyrazol-1-yl)-1-methylcyclohexanecarboxylic acid] it was 437000 pM; in that of `CC1(CN(CC(=O)c2c(Cl)cncc2Cl)C(=O)c2cnn([C@H]3CC[C@](C)(C(=O)O)CC3)c2Cl)CC1` [Example 378, trans-4-(5-chloro-4-((2-(3,5-dichloropyridin-4-yl)-2-oxoethyl)-((1-methylcyclopropyl)methyl)carbamoyl)pyrazol-1-yl)-1-methylcyclohexane-1-carboxylic acid], 74100 pM. As to `Cc1cncc(Cl)c1C(=O)CN(CC(C)(C)C)C(=O)c1cnn([C@H]2CC[C@](C)(C(=O)O)CC2)c1C(F)(F)F` [Example 379, trans-4-(4-((2-(3-chloro-5-methylpyridin-4-yl)-2-oxoethyl)-(2,2-dimethylpropyl)carbamoyl)-5-(trifluoromethyl)pyrazol-1-yl)-1-methylcyclohexane-1-carboxylic acid], the IC50 was 79400 pM. `CC1(C)[C@@H]2C[C@H](N(CCc3c[nH]c4cncc(Cl)c34)C(=O)c3cnn([C@H]4CC[C@](C)(C(=O)O)CC4)c3C(F)(F)F)C[C@@H]21` [Example 380, trans-4-(4-((2-(4-chloro-1H -pyrrolo(2,3-c)pyridin-3-yl)ethyl)((1R,3r,5S)-6,6-dimethylbicyclo[3.1.0]hexan-3-yl)carbamoyl)-5-(trifluoromethyl)-1H-pyrazol-1-yl)-1-methylcyclohexanecarboxylic acid]: the IC50 was 83200 pM.

`CC1(C)CC(CN(CC(=O)c2c(Cl)cncc2Cl)C(=O)c2cnn([C@H]3CC[C@](C)(C(=O)O)CC3)c2Cl)C1` [Example 381, trans-4-(5-chloro-4-((2-(3,5-dichloropyridin-4-yl)-2-oxoethyl)-((3,3-dimethylcyclobutyl)methyl)carbamoyl)pyrazol-1-yl)-1-methylcyclohexane-1-carboxylic acid]: the IC50 was 100000 pM. `Cc1c(C(=O)N(CC(=O)c2c(Cl)cncc2Cl)CC2CC(C)(C)C2)cnn1[C@H]1CC[C@](C)(C(=O)O)CC1` [Example 382, trans-4-(4-((2-(3,5-dichloropyridin-4-yl)-2-oxoethyl)-((3,3-dimethylcyclobutyl)methyl)carbamoyl)-5-methylpyrazol-1-yl)-1-methylcyclohexane-1-carboxylic acid]: the IC50 is 257000 pM. In the case of `CC1(C)[C@@H]2C[C@H](N(C[C@H](O)c3c(F)cncc3Cl)C(=O)c3cnn([C@H]4CC[C@](C)(C(=O)O)CC4)c3C(F)(F)F)C[C@@H]21` [Example 383, trans-4-(4-((2-(3-chloro-5-fluoropyridin-4-yl)-2-hydroxyethyl)((1R,3r,5S)-6,6-dimethylbicyclo[3.1.0]hexan-3-yl)carbamoyl)-5-(trifluoromethyl)-1H-pyrazol-1-yl)-1-methylcyclohexanecarboxylic acid], the IC50 was 39800 pM. In the case of `CC1(C)[C@@H]2C[C@H](N(C[C@@H](O)c3c(F)cncc3Cl)C(=O)c3cnn([C@H]4CC[C@](C)(C(=O)O)CC4)c3C(F)(F)F)C[C@@H]21` [Example 384, trans-4-(4-((2-(3-chloro-5-fluoropyridin-4-yl)-2-hydroxyethyl)((1R,3r,5S)-6,6-dimethylbicyclo[3.1.0]hexan-3-yl)carbamoyl)-5-(trifluoromethyl)-1H-pyrazol-1-yl)-1-methylcyclohexanecarboxylic acid] it was 347000 pM; in that of `CC1(C)[C@@H]2C[C@H](N(CC(=O)c3c(Cl)cccc3Cl)C(=O)c3cnn([C@H]4CC[C@](C)(C(=O)O)CC4)c3C3CC3)C[C@@H]21` [Example 385, trans-4-(5-cyclopropyl-4-((2-(2,6-dichlorophenyl)-2-oxoethyl)((1R,3r,5S)-6,6-dimethylbicyclo[3.1.0]hexan-3-yl)carbamoyl)-1H-pyrazol-1-yl)-1-methylcyclohexanecarboxylic acid], 18600 pM; in that of `CC12CCC(CN(CC(=O)c3c(Cl)cncc3Cl)C(=O)c3cnn([C@H]4CC[C@](C)(C(=O)O)CC4)c3Cl)(CC1)O2` [Example 386, trans-4-(5-chloro-4-((2-(3,5-dichloropyridin-4-yl)-2-oxoethyl)-((1-methyl-7-oxabicyclo[2.2.1]heptan-4-yl)methyl)carbamoyl)pyrazol-1-yl)-1-methylcyclohexane-1-carboxylic acid], 141000 pM.
